Measurements from patent publication US20060241177A1, “Novel compounds, pharmaceutical compositions containing same, and methods of use for same” (priority 2002, published 2006).

Key:
[1] = target: T1, Carnitine Palmitoyltransferase-1 (CPT-1) (Homo sapiens, UniProt P50416); test: Carnitine palmitoyltransferase-1 (CPT-1) assay in permeabilized MCF-7 cells; assay type: cell-based; details: MCF at 10 ug.ml
T1 construct: This assay uses permeabilized cells to measure the transfer of [methyl-^14C]L-carnitine; endogenous in cells; host or cells: MCF-7 cells, digitonin-permeabilized
T1 sequence (P50416 1-773): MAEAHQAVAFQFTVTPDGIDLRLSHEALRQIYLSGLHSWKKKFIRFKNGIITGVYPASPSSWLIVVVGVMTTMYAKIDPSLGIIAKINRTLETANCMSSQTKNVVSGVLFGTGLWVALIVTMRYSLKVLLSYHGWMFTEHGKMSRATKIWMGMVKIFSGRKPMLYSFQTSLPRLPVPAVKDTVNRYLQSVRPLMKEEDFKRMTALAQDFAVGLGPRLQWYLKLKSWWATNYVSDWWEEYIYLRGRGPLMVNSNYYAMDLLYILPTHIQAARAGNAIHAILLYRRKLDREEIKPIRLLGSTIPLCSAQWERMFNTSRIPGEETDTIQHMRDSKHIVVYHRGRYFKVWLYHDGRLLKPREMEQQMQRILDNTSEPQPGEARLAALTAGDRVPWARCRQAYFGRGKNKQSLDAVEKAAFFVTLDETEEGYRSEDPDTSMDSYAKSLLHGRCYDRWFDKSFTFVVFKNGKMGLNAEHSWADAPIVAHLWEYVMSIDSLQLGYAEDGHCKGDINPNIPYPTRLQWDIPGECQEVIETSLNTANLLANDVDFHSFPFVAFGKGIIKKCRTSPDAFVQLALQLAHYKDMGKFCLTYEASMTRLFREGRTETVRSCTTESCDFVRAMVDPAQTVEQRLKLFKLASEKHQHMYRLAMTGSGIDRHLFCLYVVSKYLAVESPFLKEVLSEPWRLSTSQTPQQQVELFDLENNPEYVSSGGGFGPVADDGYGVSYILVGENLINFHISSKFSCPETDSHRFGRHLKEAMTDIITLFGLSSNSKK
Protocol: Carnitine Palmitoyltransferase-1 (CPT-1) Assay
CPT-1 catalyzes the ATP dependent transfer of long-chain fatty acids from acyl-CoA to acyl-carnitine that is inhibited by malonyl-CoA. As CPT-1 requires the mitochondrial membrane for activity, enzyme activity is measured in permeabilized cells or mitochondria This assay uses permeabilized cells to measure the transfer of [methyl-^14C]L-carnitine to the organically soluble acyl-carnitine deriviative.
MCF-7 cells are plated in DMEM with 10% fetal bovine serum at 10^6 cells in 24-well plates in triplicate for controls, drugs, and malonyl-CoA. Two hours before commencing the assay, drugs are added at the indicated concentrations made from stock solutions at 10 mg/ml in DMSO, vehicle controls consist of DMSO without drug. Since malonyl-CoA cannot enter intact cells, it is only added in the assay buffer to cells that have not been preincubated with drugs. Following overnight incubation at 37° C., the medium is removed and replaced with 700 μl of assay buffer consisting of: 50 mM imidazole, 70 mM KCl, 80 mM sucrose, 1 mM EGTA, 2 mM MgCl2, 1 mM DTT, 1 mM KCN, 1 mM ATP, 0.1% fatty acid free bovine serum albumin, 70 μM palmitoyl-CoA, 0.25 μCi [methyl-^14C]L-carnitine, 40 μg digitonin with drug, DMSO vehicle control, or 20 μM malonyl-CoA. […] The butanol phase is counted by liquid scintillation and represents the acylcarnitine derivative.

[2] = Weight loss screen in Balb/C mice; assay type: in vivo
Protocol: Weight Loss Screen for Novel FAS Inhibitors
Balb/C mice (Jackson Labs) are utilized for the initial weight loss screening. Animals are housed in temperature and 12 hour day/night cycle rooms and fed mouse chow and water ad lib. Three mice are utilized for each compound tested with vehicle controls in triplicate per experiment. For the experiments, mice are housed separately for each compound tested three mice to a cage. Compounds are diluted in DMSO at 10 mg/ml when given at a dose of 30 mg/kg, and 30 mg/ml when given at a dose of 60 mg/kg, and mice are injected intraperitoneally with 60 mg/kg in approximately 100 μl of DMSO or with vehicle alone. Mice are observed and weighed daily; average weights and standard errors are computed with Excel (Microsoft). The experiment continues until treated animals reach their pretreatment weights. Select compounds are tested in animals housed in metabolic cages.
Dosing of animals are identical to the screening experiments with three animals to a single metabolic cage. Animal weights, water and food consumption, and urine and feces production are measured daily. Three lean Balb/C mice (Harlan) maintained on mouse chow, are treated with compounds at doses indicated on day 0 or with vehicle (DMSO) control of equal volume. Compound 6 was solubilized in 40 μl DMSO while Compound 8 was solubilized in 60 μl DMSO. All were injected intraperitoneally. Weights were measured on days indicated. Error bars represent standard error of the mean.

[3] = 30 mg/kg i.p., day 1, three Balb/C mice per compound

## C=CCNC(=O)[C@@H]1C(=C)C(=O)O[C@H]1CCCCCCCC (racemic)
[1]
  CPT I Stim: 400% of control/MCF
[2]; 60 mg/kg i.p., day 3, three Balb/C mice per compound
  Deaths in weight loss screen: 3 of 3 dead

## C=CCNC(=O)[C@@H]1C(=C)C(=O)O[C@H]1CCCCCC (racemic)
[2]; [3]
  Deaths in weight loss screen: 1 of 3 dead

## C=CCNC(=O)[C@@H]1C(=C)C(=O)O[C@H]1CCCC (racemic)
[2]; 30 mg/kg i.p., day 2, three Balb/C mice per compound
  Deaths in weight loss screen: 3 of 3 dead

## C=C1C(=O)O[C@@H](CCCCCCCC)[C@@H]1C(=O)NCC(=O)OC (racemic)
[2]; [3]
  Deaths in weight loss screen: 3 of 3 dead

## C=C1C(=O)O[C@@H](CCCCCCCC)[C@@H]1C(=O)NCC(=O)O (racemic)
[2]; 30 mg/kg i.p., day 6, three Balb/C mice per compound
  Deaths in weight loss screen: 1 death
